The values below come from patent US20050003008A1, “Method of in vivo drug targeting to solid tumors via acoustically triggered drug delivery in polymeric micelles” (priority 1997, published 2005).

In brackets after ≈: the same amount, converted by molar mass. Where only a bound is given, the exact number is not on record here.

Series [1] in a line: Drug partitioning between PLURONIC micelles and polystyrene latex particles. The format is physicochemical. As to the method:
To study solute release from PLURONIC micelles, the partitioning of the solute between the micelles and the surface of polystyrene latex particles was investigated. A spin probe, DSTA, or the drug, ruboxyl, was solubilized in PLURONIC P-105 solutions of various concentrations. A suspension of polystyrene latex particles (average diameter 0.9 μm, 50 μl/ml) was incubated with 1 ml of DSTA or ruboxyl solution in PLURONIC P-105, and depletion of the probe in the supernatant was measured by the EPR (for DSTA) or fluorescence (for ruboxyl) technique upon polystyrene particle separation.
An important question pertinent to this research was how tightly the solubilized drug was associated with PLURONIC micelles. To investigate this problem, ruboxyl adsorption on polystyrene latex particles was measured from molecular solutions of ruboxyl in PBS and from micellar PLURONIC solutions. Ruboxyl readily adsorbs onto polystyrene surfaces. About 90% of the drug is transferred onto polystyrene surface from ruboxyl solutions in PBS. PLURONIC micelles, however, compete for ruboxyl with polystyrene surfaces; only about 40% of ruboxyl solubilized in PLURONIC micelles (20 wt % solutions of PLURONIC P-105) is transferred onto the polystyrene surface, the remainder being retained within the PLURONIC micelles.

For series [2], the system named is breast and colon carcinomas and bone sarcoma. The conditions noted are these: cited from earlier work.
The test system of series [3] is HL-60 cells. Nature of the series: Intracellular drug uptake by HL-60 cells (lysate fluorescence). It is filed as cell-based. On the procedure: Intracellular uptake of doxorubicin and ruboxyl was measured using a fluorescence technique wherein compounds were excited at 488 nm and technical emission spectra were recorded at 510-700 nm. Two sets of samples were studied, incubated, and sonicated. Ultrasound was generated by a Sonicor SC100 sonication bath operating at 70 kHz and 37° C. Power density was controlled by adjusting the input voltage and was measured with a hydrophone.
For the first set of samples, the cells were incubated at 37° C. with doxorubicin or ruboxyl, which were either dissolved in the RPMI medium or PBS, or the drugs were solubilized in PLURONIC P-105 solutions of various concentrations. For the second set of samples, the cells were sonicated by 70 kHz ultrasound at 37° C. to assess the effect of ultrasound on the drug uptake from molecular and micellar solutions. After being incubated/sonicated with and without the drug, the cells were centrifuged, washed twice with cold PBS, resuspended in PBS, and the fluorescence spectra of cell suspensions were recorded. The fluorescence intensity of the untreated cells was subtracted from that of the drug-treated cells. Because drug fluorescence within the cells was substantially quenched, drug uptake was quantified by lysing the cells by incubating them with 1 wt % SDS solution for 1-2 hours at 37° C. This process transferred the drug from cellular components to SDS micelles. […] Upon the completion of cell lysis, fluorescence spectra of the lysates were recorded. To quantify the concentration of lysed cells, cell lysates were filtered through 0.2 μm filters, and their optical densities were measured by protein absorbance at 280 nm (OD 280 nm). […] The fluorescence intensity of lysates ws normalized by OD 280 nm.

The subject of a further series is DNA. Briefly: Drug intercalation into DNA (fluorescence drop). It is filed as binding. The settings on record: drug introduced from micellar solution. The text has this:
Ruboxyl and doxorubicin encapsulation in PLURONIC micelles restricted not only drug interaction with the cells, but also drug interaction with cell components, e.g. DNA.

Series [4] relates to leukosis, La, P-388, and L-1210; solid tumors. The conditions noted are these: P-388, L-1210 in mice, solid tumors in rats; cited from earlier work.
In series [5] the test system is MDR ovarian carcinoma A2780/ADR cells. Briefly: Growth inhibition / cell kill of MDR ovarian carcinoma cells with Pluronic and ultrasound. It is filed as cell-based. The conditions noted are these: for IC75: A2780/ADR. As to the method: (§1) It should be noted that because of the cytostatic action of micelles, the inhibitory concentration IC50 values for drugs become meaningless; for example, upon 3-hour incubation with a drug-free 10% P-105 micelles followed by three days culturing in a PLURONIC-free RPMI 1640 medium, the growth inhibition of both sensitive and resistant cells exceeded 50%. […] For cases like this it would be more informative to compare, e.g., IC75 values.
As an example, when the MDR cell were incubated with drug-free 10% PLURONIC micelles for three hours, upon which they were sonicated for 10 minutes by 69-kHz ultrasound at 3.2 W/cm^2 and cultured for 72 hours, the growth of the MDR cell dropped to forty percent of the unsonicated non-incubated control.
For the MDR cells, PLURONIC and ultrasound effects are especially important. At the absence of micelles, only about forty percent of the MDR cells are killed at DOX or Rb concentrations as high as 100 μg/ml. However, when the MDR cells were incubated with 5 μg/ml DOX for three hours in the presence of a unimeric Pluronic solution followed by a 10-minute sonication by 69-kHz ultrasound at 3.2 W/cm^2, sixty six percent of the cells died upon subsequent cell culturing vs. fifty three percent without ultrasound; only fifteen percent of the MDR cells die upon incubation with 5 μg/ml DOX without Pluronic and ultrasound treatment.
Ultrasound-induced increased intracellular uptake was accompanied by a dramatic sensitization of the MDR cells to the action of DOX (FIG. 10). […] Even without ultrasound, IC50 of DOX in the MDR ovarian carcinoma cells dropped 50-fold in the presence of PLURONIC unimers and micelles.

For series [6], the system named is drug-sensitive ovarian carcinoma A2780 cells. Nature of the series: Growth inhibition of drug-sensitive ovarian carcinoma cells (IC75). It is filed as cell-based. As to the method: as §1
A short description of series [7]: Effects of PLURONIC micelles and ultrasound on drug uptake and cytotoxicity, other drugs. It is filed as cell-based. From the text: It is important to note that the effects of PLURONIC micelles and ultrasound on drug uptake and cytotoxicity described above for DOX were also observed for another anthracycline drug, Ruboxyl. […] This implies that the new modality of drug delivery described here will have general applicability to a wide variety of drugs and drug delivery systems.

The subject of series [8] is HL-60 cells. The settings on record: combination of micellar delivery and ultrasonication; cited from earlier work.
Another series has as its system A2780 tumor. Briefly: In vivo DOX uptake by sonicated A2780 tumor.
Another series concerns A2780 cells. Briefly: Survival of ovarian carcinoma-bearing mice. The format is in vivo. The conditions noted are these: DOX 3 mg/kg intraperitoneally in PLURONIC P-105 micelles, sonication one hour after injection. As to the method: A2780 cells (1×10^6) were inoculated intraperitoneally. DOX in PBS or PLURONIC P-105 micelles was injected intraperitoneally the next day after cell inoculation. Sonication of the abdominal region was performed one hour after DOX injection.

Series [9] has as its system ovarian carcinoma drug-sensitive A2780 cells. Briefly: Intracellular DOX uptake by A2780 cells under 1 MHz ultrasound (flow cytometry). The format is cell-based. As to the method:
Fluorescence histograms of the A2780 cells incubated or sonicated in the presence of DOX are shown. The initial concentration of cells ranged from 3×10^6 to 5×10^6 cells/ml as determined using a hemacytometer. After exposure to DOX (10 μg/ml to 50 μg/ml in various experiments) and ultrasound (15 to 30 s), cells were counted again to measure the degree of sonolysis, upon which they were centrifuged, washed with PBS, fixed with a 3% formalin or 2.5% glutaraldehide, and analyzed by flow cytometry. Fluorescence histograms were recorded with a FACScan flow cytometer (Beckton Dickinson) and analyzed using CellQuest software supplied by the manufacturer. A minimum of 10,000 events was analyzed to generate each histogram.
The experiments on the effect of ultrasound on the intracellular DOX uptake with and without micelles were always conducted in parallel, at the same day and using the same batch of the cells.
A general note: Flow cytometry measures light scatter and fluorescence of single cells or particles in a stream.

Series [10] deals with MDR ovarian carcinoma A2780/ADR cells. Briefly: Growth inhibition / cell kill of MDR ovarian carcinoma cells with Pluronic and ultrasound. The conditions noted are these: 10-min sonication by 67-kHz ultrasound. It is filed as cell-based.
Series [11] in a line: Ultrasound-triggered drug release from PLURONIC P-105 micelles. It is filed as physicochemical. The text has this: The measurements of the degree of drug release are based on the decrease of DOX fluorescence intensity when DOX is transferred from the hydrophobic environment of micelle cores to the aqueous environment. An argon-ion laser beam of 488 nm was directed to a drug-containing cuvette to excite fluorescence. The emissions were collected using a fiber optic collector and filtered to remove the excitation wavelength. The emissions were quantified using a photodetector, digitized with a 12-bit A/D converter, and stored in a Macintosh computer for further analysis.
Digitized fluorescence intensity data were analyzed to calculate the percent of the drug release from micelles. A fluorescence intensity of a 10 μg/ml DOX solution in PBS (IPBS) was measured first; the PBS solution was then carefully sucked out of the cuvette and replaced with a 10 μg/ml DOX solution in 10% PLURONIC P-105 micelles. Fluorescence of this solution (Imic) was measured, and a difference Imic−IPBS was assumed to correspond to a […] drug release from micelles. Then, ultrasound was switched on, and DOX fluorescence under sonication (Ius) was recorded; if sonication induced partial drug release from micelles into the aqueous environment, Ius was lower than Imic; the “ultrasound on”-“ultrasound off” cycles were repeated several times to check reproducibility. The length of each ultrasound exposure cycle was 1 to 2 minutes. […] The degree of drug release (DDR) was calculated as follows: DDR={[Imic−Ius]/[Imic−IPBS]}×100

[12] abbreviates: PLURONIC concentration 0.1%, below CMC.
The mark [13] stands for this setting: drug sequestered in dense PLURONIC P-105 micelles vs free drug.
[14] abbreviates: absence of micelles, drug concentration 100 μg/ml.

`COc1cccc2c1C(=O)c1c(O)c3c(c(O)c1C2=O)C[C@@](O)(/C(C)=N/N=C1CC(C)(C)N(O)C(C)(C)C1)C[C@@H]3O[C@H]1C[C@H](N)[C@H](O)[C@H](C)O1.Cl` [Rb, ruboxyl]: the “drug transferred onto polystyrene surface” value is recorded as “About 90%” in series [1] (from ruboxyl solutions in PBS) and “about 40%” in series [1] (solubilized in PLURONIC micelles (20 wt % PLURONIC P-105)). Moreover, the clinical efficacy entry in series [2] (breast and colon carcinomas and bone sarcoma) is recorded as “effective”. For the same compound, the cardiotoxicity entry in series [2] (clinical trials) is listed as “reduced”. Besides, the “drug uptake by HL-60 cells” value was “somewhat enhanced” in the series on HL-60 cells [3] (setting [12]) and “substantial decrease” in the series on HL-60 cells [3] (setting [13]). Moreover, in the series on DNA, the drug-DNA interaction entry is on record as “lower drug-DNA interaction”. In [4], the anti-tumor activity result was “high”. Moreover, the IC75 (as a rule, the concentration at which the effect reaches the 75% level) in series [5] (P-105 10% (micelles)) is 17 ± 3 µg/mL; in series [5] (RPMI (no Pluronic)), over 100 µg/mL; in [6] (A2780, P-105 10% (micelles)), 0.9 µg/mL; in series [6] (A2780, RPMI (no Pluronic)), 1.5 µg/mL. Also, the MDR cells killed result in series [5] (setting [14]) was “about forty”. Further, the “effects of PLURONIC micelles and ultrasound on drug uptake and cytotoxicity” value in series [7] was “also observed”.
Regarding `COc1cccc2c1C(=O)c1c(O)c3c(c(O)c1C2=O)C[C@@](O)(C(=O)CO)C[C@@H]3O[C@H]1C[C@H](N)[C@H](O)[C@H](C)O1` [DOX, Doxorubicin], the “drug uptake by HL-60 cells” value in the series on HL-60 cells [3] (setting [12]) is on record as “somewhat enhanced”; with HL-60 cells [3] (setting [13]), “substantial decrease”. In addition, the effective drug dose entry in the series with HL-60 cells [8] was “substantial decrease”. Further, the “DOX uptake by other organs under ultrasound” value with A2780 tumor (3-MHz ultrasound) was “not affected”. For the same compound, the “DOX uptake by cells of the sonicated tumor” value in the series on A2780 tumor (DOX 6 mg/kg intravenously, 1 MHz or 3 MHz ultrasound 1.7 W/cm2) was “dramatically enhanced”. Besides, the drug-DNA interaction result with DNA is “lower drug-DNA interaction”. The “life span vs conventional drug introduction” value in the series on A2780 cells was “much longer”. Besides, the “DOX uptake, sonicated vs unsonicated cells” value in series [9] (sonicated 15 s vs unsonicated incubated 30 min, same DOX concentration) is recorded as “significantly higher”. The “intracellular uptake of DOX” value in series [9] (sonication at 1 MHz, from PBS or RPMI 1640) is given as “substantially increased”. The MDR cells died result in series [5] (5 μg/ml DOX three hours in unimeric Pluronic solution, 10-minute sonication 69-kHz 3.2 W/cm^2) is “sixty six”; in [5] (5 μg/ml DOX three hours in unimeric Pluronic solution, without ultrasound), “fifty three”; in series [5] (5 μg/ml DOX without Pluronic and ultrasound treatment), “fifteen”. For the same compound, the IC75 was 12 ± 2 µg/mL (≈ 22.1 µM) in series [5] (P-105 0.1% (unimers)); 16 ± 2 µg/mL (≈ 29.4 µM) in [5] (P-105 10% (micelles)); over 100 µg/mL in [5] (RPMI (no Pluronic)); 1.3 µg/mL (≈ 2.39 µM) in [6] (A2780, P-105 0.1% (unimers)); 1.3 µg/mL (≈ 2.39 µM) in series [6] (A2780, P-105 10% (micelles)); 1.3 µg/mL (≈ 2.39 µM) in [6] (A2780, RPMI (no Pluronic)). In addition, the MDR cells killed in [5] (PLURONIC micelle and ultrasound, DOX concentration 0.78 μg/ml) is 100%; in series [5] (setting [14]) it was “about forty”. Also, the “fraction of MDR cells highly resistant to DOX” value in series [5] (conventional medium, DOX 50 μg/ml) is “about 55%”; in [5] (in the presence of PLURONIC micelles), “completely eliminated”; in series [10], “about 30%”. Moreover, the “drop of IC50 of DOX” value in [5] (presence of PLURONIC unimers and micelles, without ultrasound) is listed as 50 fold. The “power density required for 10% DOX release” value is recorded as 7.2 W/cm^2 in series [11] (1.0-MHz ultrasound), 0.058 W/cm^2 in series [11] (20-kHz ultrasound) and 2.8 W/cm^2 in series [11] (67-kHz ultrasound).
Turning to `CC(=O)O[C@H]1C(=O)[C@@]2(C)[C@H]([C@H](OC(=O)c3ccccc3)[C@]3(O)C[C@H](OC(=O)[C@H](O)[C@@H](NC(=O)c4ccccc4)c4ccccc4)C(C)=C1C3(C)C)[C@]1(OC(C)=O)CO[C@@H]1C[C@@H]2O` [taxol], in [7], the “effects of PLURONIC micelles and ultrasound on drug uptake and cytotoxicity” value was “promising results”.
